We go through 38 compounds from patent publication US10287292B2, “CXCR7 antagonists” (CHEMOCENTRYX, INC., priority 2012, dated 2019).

As a reminder, the pIC50 is −log10 of the IC50, conventionally taken in molar units.

In experiment [1] the target is T1, CXCR7 receptor (Homo sapiens (Human), UniProt P25106). Briefly: Serum Binding Analysis: displacement of 125I-labeled SDF-1 from CXCR7 in 100% human serum. Conditions: 125I SDF-1 displacement in 100% human serum, MCF-7 and/or MDA-MB-435S CXCR7 transfected cells, 3 hrs at 4° C.; read-out: Avg Ser IC50. As to the method: (§1) The compounds were combined with cells expressing the CXCR7 receptor (e.g., MCF cells or cells transfected to express CXCR7) in the presence of the 125 I-labeled SDF-1 chemokine as detailed in Determination of IC50 values. Reagents and Cells (see below). The ability of the compounds to displace the labeled chemokine from the CXCR7 receptor sites at multiple concentrations was then determined with the screening process.
In Table 1, Avg Bind IC50 refers to the Buffer Binding Analysis described below, while Avg Ser IC50 refers to the Serum Binding Analysis described below. All compounds were prepared as described in the Examples above, or by related methods substituting readily available starting materials.
(§2) ^125I-labeled SDF-1 was purchased from Perkin-Elmer Life Sciences, Inc. (Boston, Mass.). The MCF-7 (adenocarcinoma; mammary gland) cell line was obtained from the American Type Culture Collection (ATCC, Manassas, Va.) or and was cultured in DMEM (Mediatech, Herndon, Va.) supplemented with 10% fetal bovine serum (FBS) (HyClone Logan, Utah) and bovine insulin (0.01 mg/mL) (Sigma. St. Louis, Mo.) at 37° C. in a humidified incubator at a 5% CO2/air mixture. CXCR7 transfected MDA-MB-435S were produced as described below. MDA-MB-435S human breast cancer line, was purchased from ATCC, and cultured in DMEM/10% FBS medium. The complete coding sequence of the gene encoding CXCR7 (a.k.a. CCXCKR2, hRDC1), was isolated from MCF-7 cells using μMACs mRNA isolation kit (Miltenyi Biotec, Auburn, Calif.). DNA contamination was removed by DNase digestion via RNeasy columns (Qiagen, Inc., Valencia, Calif.) and cDNA was generated using GeneAmp RNA PCR Core Kit (Applied Biosystems, Foster City. Calif.). PCR of cDNA samples was performed using Taq PCR Master Mix kit (Qiagen. Inc.) and hRDC1 primers harboring 5′ and 3′ Not I sites (hRDC1F 5′ […]-3, hRDC1R 5′-[…]-3′) Not I digested PCR product was ligated into Not I digested pcDNA3.1(+)(Invitrogen, Carlsbad, Calif.) and screened for orientation and sequence confirmed. Plasmid DNA was then isolated from overnight bacterial cultures by Maxiprep (Qiagen, Inc.). Plasmid DNA (10 μg) was added to MDA-MB-435s cells and cells were electroporated (0.22 kV, 960 uF) via Gene Pulser (Biorad laboratories, Hercules, Calif.). 48 hr post-electroporation, cells were transferred to selection medium (600 ug/ml G418).
In order to more properly assess the binding efficacy of the compounds, radioligand binding assays were carried out in the presence of 100% human serum to more accurately reflect the in vivo environment. […] Target compounds were tested to determine their ability to bind with CXCR7 sites on MCF-7 and/or MDA-MB-435S CXCR7 transfected cells. Efficiency-maxim/zed radioligand binding using filtration protocols as described in Dairaghi D J, et al., HHV8-encoded vMIP-I selectively engages chemokine receptor CCR5. Agonist and antagonist profiles of viral chemokines., J. Biol. Chem. 1999 Jul. 30; 274(31): 21569-74 and Gosling J, et al., Cutting edge: identification of a novel chemokine receptor that binds dendritic cell- and T cell-active chemokines including ELC, SLC, and TECK, J. Immunol. 2000 Mar. 15; 164(6):2851-6 was used.
In these assays, MCF-7 and/or MDA-MB-435S cells were interrogated with the target compounds and the ability of these compounds to displace 125 I radiolabeled SDF-1 was assessed using the protocol described in Dairaghi and Gosling. The target compounds were added to the plate to the indicated concentration followed by addition of cells and radiolabeled chemokine (125I SDF-1), both in the following medium (human AB serum with 10 mM HEPES added to stabilize at pH 7.4). All assays were then incubated for 3 hrs at 4° C. with gentle agitation.
(Loss of bound radioactivity is the signal in a displacement assay; it reports binding, not function.)

Experiment [2] concerns the target T1, CXCR7 receptor. The experiment is described as follows: Buffer Binding Analysis: displacement of 125I-labeled SDF-1 from CXCR7. Conditions: 125I SDF-1 displacement, buffer binding medium, MCF-7 and/or MDA-MB-435S CXCR7 transfected cells, 3 hr at 4° C.; read-out: Avg Bind IC50. As to the method:
as §1
Compounds that were deemed effective modulators were able to displace at least 50% of the SDF-1 from the CXCR7 receptor at concentrations at or below 15 micromolar (μM) but >2500 nM (+); and more preferably at concentrations from >500 nM to ≤2500 nM (++). At present, especially preferred compounds can displace at least 50% of the SDF-1 from the CXCR7 receptor at concentrations at or below 500 nM (+++). Exemplary compounds that met these criteria are reproduced in Table 1 and the Examples above. In Table 1, Avg Bind IC50 refers to the Buffer Binding Analysis described below, while Avg Ser IC50 refers to the Serum Binding Analysis described below. All compounds were prepared as described in the Examples above, or by related methods substituting readily available starting materials.
as §2
Target compounds can be tested to determine their ability to bind with CXCR7 sites on MCF-7 and/or MDA-MB-435S CXCR7 transfected cells. Efficiency-maxim/zed radioligand binding using filtration protocols as described in Dairaghi D J, et al., HHV8-encoded vMIP-I selectively engages chemokine receptor CCR5. Agonist and antagonist profiles of viral chemokines., J. Biol. Chem. 1999 Jul. 30; 274(31): 21569-74 and Gosling J. et al., Cutting edge: identification of a novel chemokine receptor that binds dendritic cell-and T cell-active chemokines including ELC. SLC, and TECK., J. Immunol. 2000 Mar. 15; 164(6):2851-6 was used.
In these assays, MCF-7 and/or MDA-MB-435S cells are interrogated with the target compounds and the ability of these compounds to displace ^125I radiolabeled SDF-1 assessed using the protocol described in Dairaghi and Gosling. […]

pIC50: −log10 of the molar value. Bounds are passed on as bounds.

T1 sequence (P25106 whole entry): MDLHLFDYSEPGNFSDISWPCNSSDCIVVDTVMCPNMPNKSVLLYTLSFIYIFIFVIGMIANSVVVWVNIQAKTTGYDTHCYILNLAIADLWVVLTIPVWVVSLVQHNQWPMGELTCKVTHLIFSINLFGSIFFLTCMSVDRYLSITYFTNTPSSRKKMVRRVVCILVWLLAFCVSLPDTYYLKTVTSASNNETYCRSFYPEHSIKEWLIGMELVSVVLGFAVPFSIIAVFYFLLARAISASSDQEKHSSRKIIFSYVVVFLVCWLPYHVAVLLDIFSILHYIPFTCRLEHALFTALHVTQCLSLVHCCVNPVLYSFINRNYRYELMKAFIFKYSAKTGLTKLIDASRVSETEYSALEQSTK

As to `O=C(N[C@H]1CCN(c2nccn3cccc23)C1)c1ccn(-c2ccc(Cl)cn2)n1` [Compound 1.081], the pIC50 in experiment [1] was 5.60 to 6.30; in experiment [2] it was at least 6.30. As to `O=C(N[C@H]1CCN(c2nccn3cccc23)C1)c1ncn(-c2ccc(Cl)cc2)n1` [Compound 1.119], the pIC50 is 5.60 to 6.30 in experiment [1] and at least 6.30 in experiment [2]. In the same order, the values of `Cc1ccn2ccnc(N3CC[C@H](NC(=O)c4ccn(-c5ccc(Cl)c(F)c5)n4)C3)c12` [Compound 1.100] are 4.82 to 5.60 and at least 6.30.

For the compound `O=C(N[C@H]1CCN(c2nccn3cccc23)C1)c1nnc(-c2ccccc2)[nH]1` [Compound 1.083], the pIC50 is 5.60 to 6.30 in experiment [1] and at least 6.30 in experiment [2]. Taken in the same sequence, the figures for `O=C(N[C@H]1CCN(c2nccn3cnnc23)C1)c1ccn(-c2ccc(Cl)cc2)n1` [Compound 1.112] were 5.60 to 6.30 and at least 6.30.

On to `O=C(N[C@H]1CCN(c2nccn3ccnc23)C1)c1ncn(-c2ccccc2)n1` [Compound 1.091], for which the pIC50 in experiment [1] and in experiment [2] was at least 6.30 each time.

On to `Cc1cc(Cl)ccc1-n1ccc(C(=O)N[C@H]2CCN(c3nccn4cccc34)C2)n1` [Compound 1.094], for which the pIC50 in experiment [1] and in experiment [2] was at least 6.30 throughout. With `Cc1ccn2ccnc(N3CC[C@H](NC(=O)c4ccn(-c5ccc(F)cc5)n4)C3)c12` [Compound 1.106], the pIC50 in experiment [1] was 5.60 to 6.30; in experiment [2] it was at least 6.30. Taken in the same sequence, the figures for `O=C(N[C@H]1CCN(c2nccn3cccc23)C1)c1ncn(-c2ccccc2)n1` [Compound 1.126] were at least 6.30 and at least 6.30. For `O=C(N[C@H]1CCN(c2nccn3ccnc23)C1)c1csc(N2CCC(O)CC2)n1` [Compound 1.079], the pIC50 in experiment [1] and in experiment [2] was at least 6.30 throughout. `O=C(N[C@H]1CCN(c2nccn3cnnc23)C1)c1ccn(-c2ccc(F)cc2)n1` [Compound 1.084]: the pIC50 in experiment [1] and in experiment [2] was at least 6.30 each time. Consider `Cc1ccn2ccnc(N3CC[C@H](NC(=O)c4ccn(-c5ccccc5CC#N)n4)C3)c12` [Compound 1.101], for which the pIC50 in experiment [1] is 5.60 to 6.30; in experiment [2] it was at least 6.30. In the same order, the values of `O=C(N[C@H]1CCN(c2nccn3cccc23)C1)c1ccn(-c2ccc(Cl)c(F)c2)n1` [Compound 1.114] are at least 6.30 and at least 6.30. In the same order, the values of `CC(C)c1cnc(C(=O)N[C@H]2CCN(c3nccn4cccc34)C2)nc1` [Compound 1.077] are at least 6.30 and at least 6.30. For `O=C(N[C@H]1CCN(c2nccn3cccc23)C1)c1csc(-c2ccc(F)cc2)n1` [Compound 1.096], the pIC50 in experiment [1] and in experiment [2] was at least 6.30 each time. With `O=C(N[C@H]1CCN(c2nccn3cnnc23)C1)c1csc(N2CCC(O)CC2)n1` [Compound 1.078], the pIC50 in experiment [1] and in experiment [2] was at least 6.30 in each case. Consider `O=C(N[C@H]1CCN(c2nccn3cccc23)C1)c1csc(-c2ccccc2)n1` [Compound 1.124], for which the pIC50 in experiment [1] and in experiment [2] was at least 6.30 each time. For the compound `Cc1ccn2ccnc(N3CC[C@H](NC(=O)c4ccn(-c5cccc(F)c5)n4)C3)c12` [Compound 1.099], the pIC50 in experiment [1] and in experiment [2] was at least 6.30 in each case. In the case of `Cc1ccn2ccnc(N3CC[C@H](NC(=O)c4ccn(-c5ccc(Cl)cc5)n4)C3)c12` [Compound 1.104], the pIC50 in experiment [1] is 4.82 to 5.60; in experiment [2], at least 6.30.

On to `CCc1cn2cccc2c(N2CC[C@H](NC(=O)c3ncn(-c4ccccc4)n3)C2)n1` [Compound 1.015], for which the pIC50 in experiment [1] was at least 6.30. Regarding `Cc1cn2cccc2c(N2CC[C@H](NC(=O)c3noc(-c4ccccc4)n3)C2)n1` [Compound 1.021], the pIC50 in experiment [1] is at least 6.30. The same measure, in the same setting: the result for `N#Cc1ccc(-n2cnc(C(=O)N[C@H]3CCN(c4nccn5ccnc45)C3)n2)cc1` [Compound 1.002] reads 4.82 to 5.60; that for `Cc1cn2cccc2c(N2CC[C@H](NC(=O)c3ncn(-c4ccc(F)cc4)n3)C2)n1` [Compound 1.020], at least 6.30. On the same count and under the same terms, the result for `O=C(N[C@@H]1CCN(c2nccn3ccnc23)C1)c1ncn(-c2ccc(F)cc2)n1` [Compound 1.010] reads 5.60 to 6.30; that for `O=C(N[C@H]1CCN(c2nccn3ccnc23)C1)c1csc(N2CCC2)n1` [Compound 1.026], at least 6.30. Still for that read-out and setting: the result for `O=C(N[C@H]1CCN(c2nccn3ccnc23)C1)c1cn(-c2ccccc2)cn1` [Compound 1.036] reads at least 6.30; that for `CCc1cn2cccc2c(N2CC[C@H](NC(=O)c3ncn(-c4ccc(F)cc4)n3)C2)n1` [Compound 1.013], at least 6.30; that for `O=C(N[C@H]1CCN(c2nccn3ccnc23)C1)c1ncn(-c2ccccc2F)n1` [Compound 1.006], at least 6.30.

For `Cc1ccc2nc(C(=O)N[C@H]3CCN(c4nc(C)cn5cccc45)C3)ncc2c1` [Compound 1.019], the pIC50 in experiment [1] was at least 6.30. Take `O=C(NC1(CO)CCN(c2nccn3ccnc23)C1)c1ncn(-c2ccccc2)n1` (stereo not drawn) [Compound 1.050]: the pIC50 in experiment [1] was at least 6.30. On the same count and under the same terms, in the case of `O=C(N[C@H]1CCN(c2nccn3cccc23)C1)c1cnc(C2CC2)cn1` [Compound 1.052] it was at least 6.30; in that of `O=C(NC1(CO)CCN(c2nccn3ccnc23)C1)c1ccn(-c2ccc(F)cc2)n1` (stereo not drawn) [Compound 1.059], at least 6.30; in that of `CC(C)c1cnc(C(=O)N[C@H]2CCN(c3nccn4cnnc34)C2)nc1` [Compound 1.061], 5.60 to 6.30. Regarding `CC(O)c1cnc(C(=O)N[C@H]2CCN(c3nccn4cccc34)C2)nc1` (stereo partly drawn) [Compound 1.033], the pIC50 in experiment [1] was 5.60 to 6.30. Same read-out and setting: the result for `CCc1cnc(C(=O)N[C@H]2CCN(c3nccn4cccc34)C2)nc1` [Compound 1.065] reads at least 6.30; that for `Cc1cn2cccc2c(N2CC[C@H](NC(=O)c3csc(N4CCCC4)n3)C2)n1` [Compound 1.025], at least 6.30. The same measure, in the same setting: in the case of `O=C(N[C@H]1CCN(c2nccn3ccnc23)C1)c1coc(-c2ccccc2)n1` [Compound 1.070] it was at least 6.30. On the same count and under the same terms, in the case of `CN(C)c1cnc(C(=O)N[C@H]2CCN(c3nccn4cccc34)C2)cn1` [Compound 1.049] it was at least 6.30.
